Laboratory results taken from US20240190888A1, “SPIRO-CONTAINING DERIVATIVE, AND PREPARATION METHOD THEREFOR AND USE THEREOF” (priority 2021, published 2024).

Key:
[1] = system: high spontaneous activity induced by PCP; assay: Inhibition of high spontaneous activity induced by PCP in mice; assay type: in vivo; settings: male C57Bl/6J mice, compound p.o. 30 min before PCP 5 mg/kg i.p.
From the text: Compounds to be tested: compounds of the examples of the present application, self-made.
Phencyclidine hydrochloride (PCP): purchased from Shanghai Yuansi Standard Science Technology Co., Ltd., specification: 5 g.
(§1) Experimental animals: 18-22 g male C57Bl/6J mice, purchased from Shanghai Slack Experimental Animal Co., Ltd.
That is, animals were transferred from the feeding room to the laboratory, and moved freely in the cage.
The animals were randomly divided into blank group, model group, and administration group according to body weight, 9 mice/group, and the detailed administration information is shown in the following table:
T0 min intraperitoneal injection of modeling drug: 30 minutes after compound administration, the mice were taken out, and administered with PCP (5 mg/kg) by intraperitoneal injection. The blank control group was injected with pure water.
(§2) The activities of these animals (movement distance in the test box) were automatically recorded by the camera, and analyzed with ANY MAZE software, and the ED50 values were calculated.

[2] = system: high spontaneous activity induced by MK-801; assay: Inhibition of high spontaneous activity induced by MK-801 in mice; assay type: in vivo; settings: male C57Bl/6J mice, compound p.o. 30 min before MK-801 0.3 mg/kg i.p.
Protocol: 3.1 Experimental Materials:
Compounds to be tested: compounds in the examples of the present application, self-made.
as §1
3.2.1 Grouping of animals: before the start of the experiment, animals were randomly grouped according to body weight. 3.2.2 Animal adaptation: before the experiment, the mice were first adapted to the experimental environment for at least 1 hour. That is, the animals were transferred from the breeding room to the laboratory and moved freely in the cage.
Drug preparation: taking the compound to be tested, adding pure water and performing ultrasonication.
The animals were randomly divided into blank group, model group, and administration group according to body weight, 9 mice % group, and the detailed administration information is shown in the following table:
T-30 min oral administration of compound: compound to be tested or solvent (pure water) was administered orally by gavage, and put into test box (test box size length*width*height=27*27*40 cm) immediately after administration, recording the spontaneous activity of the mice within 30 minutes.
The blank control group was injected with normal saline.
3.2.4 Data Recording and Analysis.
as §2

TAAR1 receptor = target: T1, TAAR1 receptor (Homo sapiens, UniProt Q96RJ0); assay: TAAR1 receptor cAMP agonist test (HEK293 cell line stably expressing TAAR1 receptor); assay type: cell-based; settings: for EC50: cAMP agonist assay, HEK293 cells stably expressing TAAR1; for TAAR1 Max Act %: maximal activation rate relative to PEA positive control
T1 construct: expressed in transfected cells
T1 sequence (Q96RJ0 1-339): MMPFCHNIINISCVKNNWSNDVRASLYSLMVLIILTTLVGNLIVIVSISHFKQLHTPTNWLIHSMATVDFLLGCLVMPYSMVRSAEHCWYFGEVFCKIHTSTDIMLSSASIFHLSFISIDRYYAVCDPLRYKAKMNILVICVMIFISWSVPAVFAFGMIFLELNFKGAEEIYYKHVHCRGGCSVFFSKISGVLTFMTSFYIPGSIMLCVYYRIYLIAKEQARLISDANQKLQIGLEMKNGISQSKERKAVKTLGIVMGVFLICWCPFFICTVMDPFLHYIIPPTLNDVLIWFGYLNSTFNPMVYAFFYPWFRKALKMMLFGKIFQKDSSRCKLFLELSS
Protocol: 1.1 Experimental Materials:
The cAMP detection lit was purchased from Cisbio; the […] cell line stably expressing TAAR1 receptor was constructed by Shanghai Singing Biotechnology Co., Ltd.; IBMX was purchased from Sigma; Phenethylamine (PEA); ProxiPlate-384 well plate was purchased from PerkinElmer. HBSS was purchased from Thermo Fisher Scientific Company.
(§3) (1) Preparation of experimental buffer: 5×stimulation buffer was diluted to 1× with ddH2O, adding IBMX with a final concentration of 0.5 mM, mixing well for later use.
(2) The frozen cells were thawed quickly in a 37° C. water bath, the cell suspension was washed with HBSS buffer, centrifuging at 200×g to remove the frozen storage solution, the pellet was resuspended with an appropriate amount of experimental buffer, taking 20 μL for counting with a cell counter, and diluting to 1.5×10^6 cells/mL.
(3) 5 μL of cell suspension (1.5×10^4 cells per well) was added to the ProxiPlate-384 well plate.
(4) The compound to be tested was diluted in the experimental buffer by gradient, and 5 μL was transferred to the reaction plate using Bravo, 5 μL experimental buffer was put in each negative control well, and 5 μL PEA (final concentration 10^−2M) was put in each positive control well.
(5) Incubating at 37° C. for 1 hour.
(6) 10 ELL of detection reagent was added to the reaction plate, incubating at room temperature for 1 hour in dark.
(§4) Activation rate (activity %)=(negative control ratio-compound ratio)/(negative control ratio-positive control ratio)×100%
The EC50 values of the compounds were calculated using the four-parameter fitting model log(agonist)vs.response—Variable slope (four parameters) in GraphPad Prism.

5-HT1A receptor = target: T2, 5-HT1A receptor (Homo sapiens, UniProt P08908); assay: 5-HT1A receptor cAMP agonist test (HEK293 cell line stably expressing 5-HT1A receptor); assay type: cell-based; settings: for EC50: cAMP agonist assay with forskolin, HEK293 cells stably expressing 5-HT1A; for 5-HT1A Max Act %: maximal activation rate relative to Serotonin positive control
T2 construct: expressed in transfected cells
T2 sequence (P08908 1-422): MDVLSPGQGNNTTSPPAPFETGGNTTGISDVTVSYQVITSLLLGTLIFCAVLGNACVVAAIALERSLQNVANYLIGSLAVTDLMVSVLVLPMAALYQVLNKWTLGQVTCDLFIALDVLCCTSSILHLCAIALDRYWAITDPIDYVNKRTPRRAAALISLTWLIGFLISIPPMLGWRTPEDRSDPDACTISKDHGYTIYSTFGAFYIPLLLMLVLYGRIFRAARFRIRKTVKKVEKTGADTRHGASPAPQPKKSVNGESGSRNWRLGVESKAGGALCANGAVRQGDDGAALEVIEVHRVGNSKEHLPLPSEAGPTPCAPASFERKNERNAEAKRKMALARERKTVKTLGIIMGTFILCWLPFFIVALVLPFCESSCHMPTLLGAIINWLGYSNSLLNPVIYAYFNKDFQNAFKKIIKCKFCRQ
Protocol: 2.1 Experimental Materials:
The cAMP detection kit was purchased from Cisbio; the HEK293 cell line stably expressing 5-HT1A receptor was constructed by Shanghai Shujing Biotechnology Co., Ltd.; Serotonin, Forskolin and IBMX were purchased from Sigma; ProxiPlate-384-well plates was purchased from PerkinElmer; HBSS was purchased from Thermo Fisher Scientific.
as §3
(2) The cultured cells were digested with trypsin, and the cell suspension was washed with HBSS buffer after the digestion was terminated, centrifuging to remove the culture medium at 200×g; the precipitate was resuspended with an appropriate amount of experimental buffer, taking 20 μL for counting with a cell counter, and diluting to 0.4×10^6 cells/mL.
(3) 5 μL cell suspension (2×10^3 cells per well) was added to ProxiPlate-384 well plate.
(4) The compound to be tested was diluted in the experimental buffer by gradient, and 5 μL was transferred to the reaction plate using Bravo, 5 μL experimental buffer was put in each negative control well, and 5 μL Serotonin (final concentration 10^−6 M) was put in each positive control well.
(5) Incubating at room temperature for 15 minutes.
(6) Forskolin (final concentration 1.5×10^−7M) was added to the reaction plate using TecanD300e picoliter micro-dosing system.
(7) Incubating at room temperature for 45 minutes.
(8) 10 μL detection reagent was added to the reaction plate, incubating at room temperature for 1 hour in dark.
as §4
The EC50 values of the compounds were calculated using the four-parameter fitting model log(agouist)vs. response—Variable slope (four parameters) in Graph Pad Prism.

SMILES | MED (minimum effective dose) [1] [mg/kg] | ED50 ([2]; Mus musculus, movement distance over 150 min, read-out: ED50 (half effective dose)) [mg/kg] | MED (minimum effective dose) [2] [mg/kg] | EC50 (TAAR1 receptor) [nM] | TAAR1 Max Act % (TAAR1 receptor) [%] | EC50 (5-HT1A receptor) [nM] | 5-HT1A Max Act % (5-HT1A receptor) [%]
CNC[C@@H]1OCC2(CC2)c2ccsc21 (single isomer, unassigned) [Example 8-S] | 0.3 | 0.36 | 0.3 | 704 | 96.1 | 903 | 90.7
CNC[C@@H]1OCC2(CC2)c2sccc21 (single isomer, unassigned) [Example 9-R] | 0.1 |  | 10 |  |  |  | 
CNC[C@H]1OCC2(CC2)c2sccc21 (single isomer, unassigned) [Example 9-S] |  |  |  | 795 | 95.8 |  | 
CNCC1OCC2(CCC2)c2ccsc21 (stereo not drawn) [Example 2, 1-(5′H,7′H-spiro[cyclobutane-1,4′-thieno[2,3c]pyran]-7′-yl)-N-methylmethylamine] |  |  |  |  |  | 257 | 108.9
CNCC1OCC2(CC2)c2c(C)csc21 (stereo not drawn) [Example 7, 1-(3′-methyl-5′H,7′H-Spiro[cyclopropane-1,4′-thieno[2,3-c]pyran]-7′-yl)-N-methylmethylamine] |  |  |  |  |  | 394 | 93.4
CNCC1OCC2(CC2)c2ccsc21 (stereo not drawn) [Example 8, 1-(5′H,7′H-Spiro[cyclopropane-1,4-thieno[2,3-c]pyran]-7′-yl)-N-methylmethylamine] |  |  |  | 1630 | 96.6 | 1540 | 91.6
CNCC1OCC2(CC2)c2sccc21 (stereo not drawn) [Example 9, 1-(4′H,6′H-spiro[cyclopropane-1,7′-thieno[3,2-c]pyran]-4′-yl)-N-methylmethylamine] |  |  |  | 1670 | 95.5 | 2440 | 92.7
[2H]C([2H])([2H])NCC1OCC2(CC2)c2ccsc21 (stereo not drawn) [Example 15, N-((5′H,7′H-Spiro[cyclopropane-1,4′-thieno[2,3-c]pyran]-7′-yl)methyl)methane-d3-amine] |  |  |  | 1730 | 93.3 | 2680 | 93.7
CCNCC1OCC2(CC2)c2ccsc21 (stereo not drawn) [Example 16, N-((5′H,7′H-spiro[cyclopropane-1,4′-thieno[2,3-c]pyran]-7′-yl)methyl)ethylamine] |  |  |  |  |  | 1380 | 115.6
c1cc2c(s1)C(CN1CCC1)OCC21CC1 (stereo not drawn) [Example 23, 1-((5′H,7′H-Spiro[cyclopropane-1,4′-thieno[2,3-c]pyran]-7′-yl)methyl)azetidine] |  |  |  |  |  | 5510 | 75.5
[2H]C([2H])([2H])NCC1OCC2(CC2)c2sccc21 (stereo not drawn) [Example 32, N-((4′,6′-dihydrospiro[cyclopropane-1,7′-thieno[3,2-c]pyran]-4′-yl)methyl)methyl-D3-amine] |  |  |  | 1320 | 97.7 | 1880 | 80.5
[2H]C([2H])([2H])NC[C@@H]1OCC2(CC2)c2sccc21 [Example 32-R, (R)—N-((4′,6′-dihydrospiro[cyclopropane-1,7′-thieno[3,2-c]pyran]-4′-yl)methyl)methyl-D3-amine] |  |  |  |  |  | 1670 | 86.3
[2H]C([2H])([2H])NC[C@H]1OCC2(CC2)c2sccc21 [Example 32-S, (S)—N-((4′,6′-dihydrospiro[cyclopropane-1,7′-thieno[3,2-c]pyran]-4′-yl)methyl)methyl-D3-amine] |  |  |  | 806 | 97.1 |  | 
